Data published in paper PMC3690454, “14-3-3 Proteins Interact with a Hybrid Prenyl-Phosphorylation Motif to Inhibit G Proteins” (Cell, 2013).
Square brackets hold non-standard residues; d marks the D form. Ends that are not written are not given here. Peptide text beside a SMILES is read from it. pS = N[C@@H](COP(=O)(O)O)C(=O)O

Assays:
[1] = test system: pS210-Rnd3; test: pS210-Rnd3 immunoblot in treated COS7 cells; assay type: cell-based; conditions: 2 hr, PMA 100 nM, BIM1 1 μM
Description: (§1) COS7 cells grown in Dulbecco’s modified Eagle’s medium (DMEM) containing 10% bovine fetal calf serum and penicillin/streptomycin (Invitrogen) were electroporated with 5 μg DNA at 250 V and 960 μF using 0.4 cm Gene Pulser Cuvettes (Bio-Rad) in 250 μl of electroporation buffer (120 mM KCl, 10 mM K2PO4/KH2PO4 [pH 7.6], 25 mM HEPES [pH 7.6], 2 mM MgCl2, and 0.5% Ficoll). Cells were analyzed 24 hr after transfection. NIH 3T3 cells grown in DMEM containing 10% donor bovine serum and penicillin/streptomycin were transfected using FuGENE 6 (Roche) according to the manufacturer’s instructions. Where indicated, cells were treated for 20 min with 100 nM calyculin A (Alexis); for 2 hr with 100 nM staurosporine (Calbiochem), 20 μM H-1152 (Calbiochem), 1 μM bisindolylmaleimide I (BIM1, Calbiochem), or 100 nM phorbol-12-myristate-13-acetate (PMA, Cell Signaling Technology); and for 16 hr with 10 μM L-744,832 farnesyltransferase inhibitor (FTI, Calbiochem).
Rabbit polyclonal antisera were raised against phosphorylated Rnd3-S210 peptide (KNVKRNKpSQRA) by Eurogentec, Seraing, Belgium. Nonspecific antibodies were removed through a nonphosphopeptide (KNVKRNKSQRA) column followed by a specific phosphoenrichment of the antibodies by affinity purification using a phosphopeptide column. […]

[2] = target: biotinylated Rnd3 C-terminal peptide, phosphorylated on S240 and farnesylated on C241 (+P+F) (human); test: BLI; Octet RED96; biotinylated peptides immobilised on streptavidin biosensors; dilution series of 14-3-3ζ; 25 mM Tris, 150 mM NaCl, 0.1% Tween-20; KD of +P-F by steady-state analysis
[3] = target: biotinylated Rnd3 C-terminal peptide, phosphorylated on S240 and geranylated (+P+G) (human); test: as above
[4] = target: biotinylated Rnd3 C-terminal peptide, phosphorylated on S240 (+P−F) (human); test: as above
[5] = target: biotinylated Rnd3 C-terminal peptide, phosphorylated on S240 and isoprenylated (+P+Ipr) (human); test: as above
[6] = target: biotinylated Rnd3 C-terminal peptide, phosphorylated on S240 and geranylgeranylated (+P+GG) (human); test: as above
[7] = test system: GST-14-3-3β / Rnd3 interaction; test: Peptide competition in GST-14-3-3β pull-down of FLAG-Rnd3 from COS7 lysates; assay type: binding; conditions: peptide 10 μg/ml preincubated 15 min at 4°C with GST-14-3-3β; immunoblot
Description: Recombinant GST-14-3-3β was expressed and purified from E. coli (Extended Experimental Procedures). FLAG-Rnd3-transfected COS7 cells were lysed in LB buffer. After removal of insoluble material, precleared cell lysates were incubated at 4°C for 2 hr with the recombinant GST or GST-14-3-3β protein (5 μg) on glutathione beads (Amersham Biosciences). Beads were washed with LB buffer before eluting the proteins in LSB. The proteins were resolved by SDS-PAGE and analyzed by immunoblotting.
For peptide competition experiments (Table S3; Extended Experimental Procedures), peptides (10 μg/ml) were preincubated for 15 min at 4°C with the GST-14-3-3β prior to the addition of precleared cell lysates.

[8] = target: T1, 14-3-3ζ (Homo sapiens, UniProt P63104); test: Isothermal titration calorimetry of Rnd3 C-terminal peptides with 14-3-3ζ; assay type: binding; conditions: ITC
T1 construct: hexa-His; made in house; host or cells: E. coli BL21(DE3) Star
T1 sequence (P63104 1-245): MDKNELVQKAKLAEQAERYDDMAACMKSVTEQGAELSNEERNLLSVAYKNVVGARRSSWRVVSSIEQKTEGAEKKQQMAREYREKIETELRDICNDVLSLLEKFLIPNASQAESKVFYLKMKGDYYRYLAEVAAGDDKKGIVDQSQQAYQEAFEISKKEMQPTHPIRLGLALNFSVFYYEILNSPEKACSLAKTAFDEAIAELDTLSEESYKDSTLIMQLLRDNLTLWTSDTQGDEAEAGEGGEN
Description: ITC measurements were carried out using a VP-ITC200 instrument (GE Healthcare). The 14-3-3ζ domain (see Extended Experimental Procedures) was used at 50–60 μM in ITC buffer (50 mM Tris [pH 7.5]), 100 mM NaCl, 1 mM TCEP). Rnd3 C-terminal peptides were solubilized in ITC buffer and used at 500–600 μM. Titrations were carried out at 25°C in triplicate. Each titration was fitted to a simple one-site binding model using the Origin software provided with the instrument. Titrations with nonbinding peptides were carried out at 15°C and 25°C.
GST-14-3-3β protein was expressed as previously reported ([Yaffe et al., 1997]). A hexa-His-tagged version of 14-3-3ζ was expressed and purified essentially as previously reported ([Kostelecky et al., 2009]). In brief, the E. coli strain BL21(DE3) Star (Invitrogen) was transformed with the expression plasmid that was maintained by 34 μg/ml chloramphenicol. E. coli cells were grown to OD600nm of 0.7-0.8 in TB medium at 37°C and protein expression induced by 1 mM IPTG for 5 hr at 30°C. Pelleted cells were suspended in buffer A (25 mM Tris [pH 7.5], 100 mM NaCl, 1 mM EDTA, and 1 mM DTT) and disrupted by sonication. Insoluble material was cleared by high-speed centrifugation and the cleared lysate applied to a 5 ml HisTrap column using an AKTA system (GE Healthcare). The 14-3-3ζ protein was eluted with a linear gradient (0–500 mM) of Imidazole in buffer A. Finally, the protein was subjected to size-exclusion chromatography using a High-Load S200 pg column. As previously described, 14-3-3ζ eluted as a dimer with a molecular weight of ∼60 kDa. The final yield of 14-3-3ζ was 30–40 mg per liter of TB medium.

[9] = target: T1, 14-3-3ζ; test: Biolayer interferometry (Octet RED96), immobilised biotinylated peptides, 14-3-3ζ in solution; assay type: binding; conditions: determined by steady-state analysis, typical experiment (n ≥ 3)
Description: Biolayer interferometry was carried out using an Octet RED96 instrument (ForteBio). Biotinylated peptides were immobilized on streptavadin-coated biosensors (ForteBio) at a concentration of 1 μg/ml in BI buffer (25 mM Tris, 150 mM NaCl, 0.1% Tween-20), for 300 s. The immobilization typically reached a response level of 2 nm. Association and dissociation curves were obtained through addition of a dilution series of 14-3-3ζ ([…]) for 300 s followed by dissociation in BI buffer for 300 s using the Octet acquisition software. The binding data were fitted using the Octet analysis software.

[10] = test system: Rnd3/14-3-3 interaction; test: Co-immunoprecipitation of Rnd3 with 14-3-3 proteins from treated COS7 cells; assay type: cell-based; conditions: staurosporine 100 nM 2 hr, calyculin A 100 nM 20 min, FTI (L-744,832) 10 μM 16 hr, immunoblot
Description: as §1
Transfected COS7 cells were lysed in lysis buffer LB (1% Triton X-100, 20 mM Tris–HCl [pH 8], 130 mM NaCl, 1 mM dithiothreitol [DTT], 10 mM sodium fluoride, complete EDTA-free protease inhibitor cocktail [Roche], phosphatase inhibitor cocktails [set II+IV, Calbiochem]). After centrifugation (13,000 g, 4°C, 10 min), soluble proteins were precleared then incubated with either mouse nonimmune IgG as a control, mouse anti-HA (HA-7) or mouse anti-FLAG (M2) antibody on agarose beads (Sigma-Aldrich) for 2 hr at 4°C. Beads were washed five times with lysis buffer (containing 260 mM NaCl), then bound proteins were eluted in Laemmli sample buffer (LSB), resolved by SDS–PAGE and analyzed by immunoblotting.

[11] = target: T2, hexa-His-tagged 14-3-3ζ (UniProt P63104 1-245); test: BLI; Octet RED96; biotinylated peptides immobilised on streptavidin-coated biosensors (1 μg/ml, 300 s); dilution series of 14-3-3ζ for 300 s, dissociation 300 s; BI buffer 25 mM Tris, 150 mM NaCl, 0.1% Tween-20; data of a typical experiment (n ≥ 3); conditions: both partners purified
T2 construct: 14-3-3 protein zeta; expressed and purified essentially as in Kostelecky et al., 2009; eluted as a dimer of ~60 kDa; the ITC methods call it 'the 14-3-3ζ domain'; source: E. coli BL21(DE3) Star, purified (HisTrap, size-exclusion chromatography)
T2 sequence: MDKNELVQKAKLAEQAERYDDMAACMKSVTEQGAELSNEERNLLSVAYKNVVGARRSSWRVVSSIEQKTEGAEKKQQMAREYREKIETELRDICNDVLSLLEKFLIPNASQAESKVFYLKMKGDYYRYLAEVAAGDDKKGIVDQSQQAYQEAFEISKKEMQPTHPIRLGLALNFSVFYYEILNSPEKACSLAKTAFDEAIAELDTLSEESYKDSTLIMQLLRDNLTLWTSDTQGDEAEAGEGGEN

`CN(C)CCCn1cc(C2=C(c3c[nH]c4ccccc34)C(=O)NC2=O)c2ccccc21` [BIM1, bisindolylmaleimide I] was tested, and the “effect on pS210-Rnd3” value [1] was “reduced”.

“hexa-His-tagged 14-3-3ζ (from UniProt P63104 1-245) (natural protein)” gave a Kd [2] of 32.4 nM, a koff [2] of 0.028 s⁻¹ and a kon [2] of 860000 M⁻¹ s⁻¹. It also gave a Kd [3] of 56.5 nM, a koff [3] of 0.032 s⁻¹ and a kon [3] of 570000 M⁻¹ s⁻¹. For the same molecule, the Kd [4] was 1300 nM, the Kd [5] was 556 nM and the koff [5] was 0.13 s⁻¹. The kon [5] was 240000 M⁻¹ s⁻¹, the Kd [6] was 23.2 nM and the koff [6] was 0.021 s⁻¹. It also gave a kon [6] of 890000 M⁻¹ s⁻¹.

In the case of `CCCCCCCCCCCCCC(=O)O[C@@H]1[C@@H](C)[C@@]2(O)[C@@H](C=C(CO)C[C@]3(O)C(=O)C(C)=C[C@@H]23)[C@@H]2C(C)(C)[C@]12OC(C)=O` [PMA, phorbol-12-myristate-13-acetate], the “effect on pS210-Rnd3” value [1] is reported as “increase”.

`CC(C)C[C@H](NC(=O)[C@@H](N)CC(=O)O)C(=O)N[C@@H](CCCNC(=N)N)C(=O)N[C@@H](CCCCN)C(=O)N[C@@H](CC(=O)O)C(=O)N[C@@H](CCCCN)C(=O)N[C@@H](C)C(=O)N[C@@H](CCCCN)C(=O)N[C@@H](COP(=O)(O)O)C(=O)N[C@@H](CS)C(=O)O` [+P-F] (H-DLRKDKAK[pS]C-OH) was tested, and the “inhibition of the interaction between GST-14-3-3β and Rnd3” value [7] was “only slightly inhibited”, the Kd ([8]; 25°C, 50 mM Tris pH 7.5, 100 mM NaCl, 1 mM TCEP, one-site model, mean ± SD, n = 3) was 1060 ± 40 nM and the “Stoichiometry (N)” value ([8]; 25°C, 14-3-3ζ 50–60 μM, peptide 500–600 μM, 50 mM Tris pH 7.5, 100 mM NaCl, 1 mM TCEP, one-site model, mean ± SD, n = 3) was 0.89 ± 0.017. It also gave a TΔS ([8]; 25°C, mean ± SD, n = 3) of 2.469 ± 0.231 kcal/mol, a ΔG ([8]; 25°C, mean ± SD, n = 3) of -8.152 ± 0.027 kcal/mol and a ΔH ([8]; 25°C, mean ± SD, n = 3) of -5.683 ± 0.204 kcal/mol. The “N (printed in Figure 5C)” value ([8]; fitted curve of Figure 5C) was 0.89 and the Kd [9] was 1300 nM.

In the case of `CC[C@H](C)[C@@H](CO[C@@H](Cc1ccccc1)C(=O)N[C@@H](CCS(C)(=O)=O)C(=O)OC(C)C)NC[C@@H](N)CS` [FTI, L-744,832], the “effect on Rnd3/14-3-3 interaction” value [10] is reported as “prevented”.

In the case of `CN[C@@H]1C[C@H]2O[C@@](C)([C@@H]1OC)n1c3ccccc3c3c4c(c5c6ccccc6n2c5c31)C(=O)NC4` [staurosporine], the “effect on Rnd3/14-3-3 interaction” value [10] is reported as “reduced”.

For “N-CDRSKpSAPTS-C [PKC, reference compound]”, the “inhibition of the interaction between GST-14-3-3β and Rnd3” value [7] was “inhibited”.

In the case of `COC[C@@H]([C@H](O)[C@H](O)C(=O)NCC[C@H](C)c1nc(/C=C/C[C@@H]2O[C@]3(C[C@@H](O)[C@@H]2C)O[C@H]([C@H](C[C@H](O)[C@H](C)[C@H](O)[C@H](C)/C=C(C)/C(C)=C/C=C/C(C)=C\C#N)OC)[C@H](OP(=O)(O)O)C3(C)C)co1)N(C)C` [calyculin A], the “effect on Rnd3/14-3-3 interaction” value [10] is reported as “increased”.

B1: Rap1A C-terminal peptide, phosphorylated, not geranylgeranylated (biotinylated) (peptide)
peptide: EKKKPKKK[pS]C
modifications: not fully specified (N-terminus); also: biotinylated
notes: Rap1A C-terminal peptide as Dm2 but without the geranylgeranyl modification; also called Rap1A+P-GG; nonmodified phosphopeptide; source: synthetic peptide
In the case of B1, the Kd [11] is reported as > 1000 nM.
